{
  "source": "paper PMC8618187",
  "about": "(Nanomaterials, 2021)",
  "key": {"[1]": {"assay": "In vitro PTX release with kinetic modelling (with/without GSH)", "assay_type": "physicochemical", "settings": "without GSH", "method": "Glutathione (GSH)-triggered release was investigated in vitro from Ms, R-Ms, PR-Ms, and PT-R-Ms formulations (without GSH) and from PT-R-Ms in the presence of 20 mM GSH.\nRedox responsive multifunctional micelles remained indolent in the physiological environment and became activated when they reached a reductive environment, which is another approach for targeted site-specific delivery. As a proof-of-concept, glutathione (GSH)-triggered release (to mimic the redox tumor microenvironment) was investigated in vitro from Ms, R-Ms, PR-Ms, and PT-R-Ms formulations (without GSH) and from PT-R-Ms in the presence of 20 mM GSH. The controlled burst release was confirmed by applying kinetic models of drug release (zero-order, Higuchi, Korsmeyer–Peppas, and Hixon Crowell) to the different formulations, and the results are gathered in Table 2. The Korsmeyer–Peppas model was proven to be suitable to explain the release kinetics from the PT-R-Ms, which is a prerequisite for polymeric systems."}, "human macrophages": {"system": "human macrophages", "assay": "Biocompatibility against human macrophages (MTT)", "assay_type": "cell-based", "settings": "high concentrations", "method": "Biocompatibility studies of pure PTX, Ms, RMs, PR-Ms, and PT-R-Ms were performed against human macrophages. Ficoll-percoll gradient technique was used to isolate human macrophages. Ficoll solution was prepared by dissolving 5.6 g of ficoll in 9.5 mL deionized water and 5 mL gastrografin to achieve a density of 1.070 g/mL. The fresh human blood (10 cm^3) was diluted three times with Hanks buffer salt solution (HBSS), layered onto a percoll gradient and then centrifuged at 400× g for 5 min to isolate the macrophage layer. The separated cells were suspended in RPMI medium (10% FBS, 100 U/mL penicillin, 0.1 mg/mL streptomycin, and 25 mM HEPES) and incubated at 5% CO2. […] Normal cells were taken as negative controls, while cells treated with 1% Triton X were used as positive controls to investigate the viability."}, "HCT-116 cells [2]": {"system": "HCT-116 cells", "assay": "Cell apoptosis by flow cytometry (Annexin V FITC/PI)", "assay_type": "cell-based, human", "set-up": "dose or concentration left out as unconfirmed", "settings": "HCT-116, 48 h", "excerpt": "After treatment, the cells were harvested and washed twice with cold PBS."}, "[3]": {"assay": "Oral pharmacokinetics of PTX", "assay_type": "in vivo, rats", "excerpt": "Healthy female rats weighing 120–150 g were selected and fasted overnight with free access to water and were randomly distributed into four groups and each group had four rats (n = 4)."}, "[4]": {"assay": "In vivo biodistribution (fluorescence of excised organs and tumors)", "set-up": "species or system rats", "settings": "oral", "method": "The fluorotagged PT-R-Ms were given orally to rats by oral gavage. After 48 h, rats were sacrificed and their major organs were excised to investigate the formulation distribution within them. The fluorescence intensity of the excised organs (heart, liver, spleen, and kidney) was examined using the iBox Explorer2 (iBox® Explorer2 Imaging Microscope; UVP Ltd. The system was set on a 535/45 nm excitation filter and a 605/50 nm emission filter with the automated BioLite™ MultiSpectral Light Source. Images were taken at 0.17× magnification, and the intensity was kept at 6 using the 3.2 MP OptiChemi 610 camera (Vision Works® LS Acquisition, AnlyticJena, Jena, Germany). An analysis software was used to study the images."}, "rats [5]": {"system": "rats", "settings": "rat, in vivo, po, 20 mg/kg", "quoted_text": "(§1) Healthy, female rats weighing 150 g and aged 10–14 weeks were taken from the animal house. Rats were divided into 4 groups (n = 4) and kept under a standard condition of food and water in the controlled environment. […] The dose (20 mg/kg) was administered orally through oral gavage. […] After 14 days, the rats were sacrificed for blood and serum biochemistry and tissue histology studies [29].\n(§2) The blood from each rat was drawn through cardiac puncture into BD vacutainer blood collection tubes. […] The clear supernatant was carefully removed and stored at −20 °C. Liver function tests (LFTs) including alkaline phosphatase (ALP), serum glutamic-pyruvic transaminase (SGPT), serum glutamic-oxaloacetic transaminase (SGOT) and bilirubin, renal functions tests (RFTs) including urea and creatinine, serum electrolytes (Na, Mg, Ca, and P), glucose and total protein were analyzed using the serum.\n(§3) Changes in the organs weight were measured to evaluate the toxicity of tested formulations. The vital organs (heart, kidneys, liver, and spleen) were removed from the rats after being sacrificed, washed with normal saline, and then weighed individually. The weights of organs from treated groups were compared with a control group and body mass index was calculated using the following formula [30]: organ−body weight index (%)=organ weight/body weight×100%\n(§4) Vital organs (liver, kidney, heart, and spleen) were examined for toxicity and to notice any pathological changes [31]. The organs were stored in 10% formalin solution. A paraffin section (0.5 µm) was cut into the same size as the organ via a rotary microtome and was properly fixed. Tissue sections were then fixed onto glass slides followed by staining with hematoxylin and eosin periodic acid Schiff (PAS). The sections were examined under a microscope for any toxic effect produced by the redox and non-redox micelles."}, "in vitro": {"assay": "in vitro", "settings": "rat, pH 6.5", "quoted_text": "Briefly, the study was conducted on the intestine of healthy rats weighing between 250–300 g. The rats were sacrificed and the abdomen was opened with a middle incision. The intestine was immediately removed, thoroughly washed with Krebs ringer solution (pH 6.5), and cut into pieces of 4–5 cm. The intestine was everted by carefully passing a narrow glass rod from one end of the intestine and then gently rolling it on a glass rod. All the pieces were stored in an oxygenated Krebs ringer solution at 4 °C until further use. […] Each segment was tied at one end with a silk suture, and 1 mL of sample (1 mg/mL) was carefully filled in the sac using a hypodermic syringe and the other end was tied with a silk suture. […] All filled sacs were immersed in tubes filled with 10 mL of oxygenated Krebs solution and incubated at 37 °C under gentle mechanical shaking. The samples were collected at predefined times from the surrounding medium and replaced with the same amount of fresh solution. […] The apparent permeability was calculated using the following equation:Apparent permeability (µg/cm^2) = (concentration × volume)/mucosal surface area\nThe mucosal surface area was calculated assuming that the intestine is a cylinder by using the formula:Mucosal surface area (cm^2) = circumference (π × diameter) × length"}, "rats [6]": {"system": "rats", "assay": "Acute oral toxicity (OECD 425), serum biochemistry, histopathology", "settings": "single oral dose of 20 mg of PTX/kg, after 14 days", "quoted_text": "as §1, §2, §3, §4"}, "HCT-116 cells [7]": {"system": "HCT-116 cells", "assay": "Cellular uptake of curcumin by fluorescence microscopy", "assay_type": "cell-based, human", "settings": "curcumin loaded into PT-R-Ms micelles, HCT-116, 0, 6, 12 h", "method": "To analyze the internalization of curcumin (a P-gP inhibitor) into tumor cells, HCT-116 tumor cells were used. Curcumin as a fluorescent probe was encapsulated within the core of PT-R-Ms micelles following a similar procedure to that mentioned earlier for PTX loaded micelles. The HCT-116 cells were seeded into 6 well plates at a density of 1 × 10^6 cells/well. After 24 h the cells became confluent and were incubated with curcumin-loaded PT-R-Ms for different time periods (0, 6, 12 h). Upon incubation, the medium was removed and the cells were washed with cold PBS. Subsequently, the uptake of curcumin was monitored by fluorescence microscopy (Evos® FL Cell Imaging System, Thermo Fisher Scientific, Waltham, MA, USA). Ex vivo assays based on the tumor tissue slice model were used to analyze the curcumin uptake by inhibition of P-gP efflux pump overexpressed on tumor cells, as reported earlier. Different slides of tumor tissue were prepared and stained with curcumin-loaded PT-R-Ms. Similarly, HCT-116 tumor tissue cells were incubated for different time intervals to monitor the uptake of curcumin."}, "[8]": {"settings": "female, rat, plasma, oral gavage, 20 mg/kg"}},
  "note": "Where two headings read alike, the source gives them in different places.",
  "data": [
    {"smiles": "CC(=O)O[C@H]1C(=O)[C@@]2(C)[C@H]([C@H](OC(=O)c3ccccc3)[C@]3(O)C[C@H](OC(=O)[C@H](O)[C@@H](NC(=O)c4ccccc4)c4ccccc4)C(C)=C1C3(C)C)[C@]1(OC(C)=O)CO[C@@H]1C[C@@H]2O", "note": "[PTX, paclitaxel]", "values": [
      {"measurement": "Higuchi Model K0", "setting": "[1]", "result": 40.117},
      {"measurement": "Hixon Crowell Model K0", "setting": "[1]", "result": 0.190},
      {"measurement": "Korsmeyer–Peppas Model N", "setting": "[1]", "result": 0.701},
      {"measurement": "Zero Order K0", "setting": "[1]", "result": 21.01},
      {"measurement": "toxicity against human macrophages", "setting": "human macrophages", "result": "cytotoxic"},
      {"measurement": "percentage of apoptotic cells", "setting": "HCT-116 cells [2]", "result": "28.57 ± 0.06", "unit": "%"},
      {"measurement": "time above the minimum effective concentration / within the therapeutic window", "setting": "[3]; MEC 35 ng/mL, oral", "result": 2, "unit": "h"},
      {"measurement": "bioavailability", "setting": "[3]; female, rat, plasma, po, 20 mg/kg", "result": 7.5, "unit": "%"},
      {"measurement": "Cmax", "setting": "[3]; [8]", "result": "70.69 ± 0.14", "unit": "ng/mL"},
      {"measurement": "half-life", "setting": "[3]; [8]", "result": "32.9 ± 2.2", "unit": "h"},
      {"measurement": "AUC(0-t)", "setting": "[3]; female, rat, plasma, oral gavage, 20 mg/kg, read-out: AUC 0-96", "result": "4271 ± 8.4", "unit": "ng·h/mL"},
      {"measurement": "MRT last", "setting": "[3]; female, rat, plasma, oral gavage, 20 mg/kg, read-out: MRT 0-96", "result": "54.9 ± 2.7", "unit": "h"},
      {"measurement": "Tmax", "setting": "[3]; female, rat, plasma, oral gavage, 20 mg/kg, read-out: Tmax", "result": "4 ± 0.2", "unit": "h"},
      {"measurement": "Tmax", "setting": "[3]; oral gavage, 20 mg/kg", "result": 2, "unit": "h"},
      {"measurement": "biodistribution: liver", "setting": "[4]", "result": "significantly higher uptake in the liver"},
      {"measurement": "histopathological changes in the liver tissue", "setting": "rats [5]", "result": "cytoplasmic degeneration, necrosis, hemorrhage, and infiltration of inflammatory cells"},
      {"measurement": "histopathology of heart tissue", "setting": "rats [5]", "result": "lesions, myocarditis, and infiltration of inflammatory cells"},
      {"measurement": "histopathology of kidney tissue", "setting": "rats [5]", "result": "distorted glomeruli, dilated tubules, edema exudate, mild necrosis, and infiltration of inflammatory cells"},
      {"measurement": "histopathology of spleen tissue", "setting": "rats [5]", "result": "distorted lymphoid architecture"},
      {"measurement": "Papp A→B at 1 mg/mL", "setting": "in vitro", "result": "0.43 ± 0.2", "unit": "×10⁻⁶ cm/s"},
      {"measurement": "Papp B→A at 1 mg/mL", "setting": "in vitro", "result": "2.35 ± 0.2", "unit": "×10⁻⁶ cm/s"},
      {"measurement": "Mortality, tissue damage, or bodyweight change", "setting": "rats [6]", "result": "not observed"}
    ]},
    {"smiles": "COc1cc(/C=C/C(=O)CC(=O)/C=C/c2ccc(O)c(OC)c2)ccc1O", "note": "[curcumin]", "values": [
      {"measurement": "time of maximum curcumin uptake", "setting": "HCT-116 cells [7]", "result": 12, "unit": "h"}
    ]}
  ]
}
